According to ChEMBL document CHEMBL4477206, “Benzylpiperidine-Linked Diarylthiazoles as Potential Anti-Alzheimer's Agents: Synthesis and Biological Evaluation” (J Med Chem, 2016):
Activity calls are given as the source filed them. The rule behind the calls is not given here.

Legend:
[1] = Toxicity in Swiss albino mouse assessed as change in body weight at 677 to 2000 mg/kg, po for 14 days; format: organism-based; conditions: in vivo, 336 h
[2] = Toxicity in Swiss albino mouse assessed as kidney damage at 677 to 2000 mg/kg, po treated for 14 days measured on 15th day post treatment; format: organism-based; conditions: in vivo, 336 h
Mus musculus [3] = test: (§1) Neuroprotective activity in Swiss albino mouse assessed as elevation of scopolamine-induced decrease in catalase level in brain at 5 mg/kg, po administered 30 mins prior to scopolamine challenge administered for 9 days measured after 1 min of compound incubation by spectrophotometrical analysis relative to vehicle-treated control; format: functional, organism-based
[4] = AUC(0 to 8 hrs) in Wistar rat at 5 mg/kg, po administered as a single dose by HPLC analysis; format: ADME, organism-based; design: time < 6 hr, dose 5 mg/kg, route oral; conditions: in vivo
[5] = Cmax in Wistar rat at 5 mg/kg, po administered as a single dose by HPLC analysis; format: ADME, organism-based; design: dose 5 mg/kg, route oral; conditions: in vivo
in vitro [6] = conditions: human, SH-SY5Y cells
Description: Cytotoxicity against human SH-SY5Y cells assessed as cell viability at 40 uM after 24 hrs by MTT assay

[7] = Toxicity in Swiss albino mouse assessed as mortality at 677 to 2000 mg/kg, po for 14 days; format: organism-based; conditions: in vivo, 336 h
in vitro [8] = conditions: human, SH-SY5Y cells; remark: listed apart in the source
Description: Cytotoxicity against human SH-SY5Y cells assessed as cell viability at 80 uM after 24 hrs by MTT assay

[9] = Toxicity in Swiss albino mouse assessed as heart damage at 677 to 2000 mg/kg, po treated for 14 days measured on 15th day post treatment; format: organism-based; conditions: in vivo, 336 h
[10] = Permeability of the compound at 100 ug/ml incubated for 120 mins by PAMPA; format: ADME; conditions: read-out: Peff
[11] = Tmax in Wistar rat at 5 mg/kg, po administered as a single dose by HPLC analysis; format: ADME, organism-based; conditions: in vivo
Cholinesterase = Cholinesterase (Equus caballus, UniProt P81908); test: Inhibition of equine serum BuChE using BTCI as substrate preincubated for 30 mins followed by substrate addition measured after 30 mins by Ellman assay
[12] = Toxicity in Swiss albino mouse assessed as liver damage at 677 to 2000 mg/kg, po treated for 14 days measured on 15th day post treatment; format: organism-based; conditions: in vivo, 336 h
[13] = Toxicity in Swiss albino mouse assessed as changes in fur sleekness at 677 to 2000 mg/kg, po for 14 days; format: organism-based; conditions: in vivo, 336 h
Acetylcholinesterase [14] = target: T1, Acetylcholinesterase (Homo sapiens, UniProt P22303); conditions: at 10 µM
Description: Inhibition of human erythrocyte AChE-induced Abeta (1 to 42) aggregation at 10 uM incubated for 24 hrs by thioflavin-T fluorescence assay

Rattus norvegicus = test: Neuroprotective activity in Wistar rat brain hippocampus assessed as increase in Abeta (1 to 42) insult-induced decrease in spontaneous alterations at 5 mg/kg, po administered for 15 days measured for last 5 days of treatment by Y Maze assay; format: functional, organism-based
Mus musculus [15] = test: as §1, with “inhibition” for “elevation”, “elevation” for “decrease”, “MDA” for “catalase”, “20 mins” for “1 min”, “TBARS assay” for “spectrophotometrical analysis”; format: functional, organism-based
[16] = Terminal half life in Wistar rat at 5 mg/kg, po administered as a single dose by HPLC analysis; format: ADME, organism-based; conditions: in vivo, read-out: beta t1/2 (converted)
Acetylcholinesterase [17] = target: T1, Acetylcholinesterase; test: Mixed inhibition of human erythrocyte AChE at 0.05 to 0.4 uM using ATCI as substrate preincubated for 30 mins followed by substrate addition measured after 30 mins by Lineweaver-Burk plot analysis
[18] = Toxicity in Swiss albino mouse assessed as change in water and food consumption at 677 to 2000 mg/kg, po for 14 days; format: organism-based; conditions: in vivo, 336 h

T1 sequence (P22303 whole entry): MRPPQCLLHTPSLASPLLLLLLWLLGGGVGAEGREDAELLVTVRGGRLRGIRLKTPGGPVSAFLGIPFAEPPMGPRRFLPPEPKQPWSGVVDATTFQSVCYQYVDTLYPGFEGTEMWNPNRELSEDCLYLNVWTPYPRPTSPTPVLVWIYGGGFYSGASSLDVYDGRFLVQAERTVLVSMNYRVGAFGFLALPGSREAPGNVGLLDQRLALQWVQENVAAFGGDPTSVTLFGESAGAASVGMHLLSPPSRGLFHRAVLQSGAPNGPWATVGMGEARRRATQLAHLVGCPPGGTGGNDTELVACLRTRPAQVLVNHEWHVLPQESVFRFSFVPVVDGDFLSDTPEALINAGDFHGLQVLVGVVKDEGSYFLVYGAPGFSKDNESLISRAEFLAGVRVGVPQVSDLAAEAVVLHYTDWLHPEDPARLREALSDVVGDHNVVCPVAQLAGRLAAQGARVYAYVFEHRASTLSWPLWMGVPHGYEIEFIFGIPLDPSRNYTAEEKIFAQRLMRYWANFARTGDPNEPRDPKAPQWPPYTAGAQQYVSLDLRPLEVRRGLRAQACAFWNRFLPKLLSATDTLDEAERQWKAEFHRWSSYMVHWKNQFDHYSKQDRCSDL
Sequence of Cholinesterase (P81908 whole entry): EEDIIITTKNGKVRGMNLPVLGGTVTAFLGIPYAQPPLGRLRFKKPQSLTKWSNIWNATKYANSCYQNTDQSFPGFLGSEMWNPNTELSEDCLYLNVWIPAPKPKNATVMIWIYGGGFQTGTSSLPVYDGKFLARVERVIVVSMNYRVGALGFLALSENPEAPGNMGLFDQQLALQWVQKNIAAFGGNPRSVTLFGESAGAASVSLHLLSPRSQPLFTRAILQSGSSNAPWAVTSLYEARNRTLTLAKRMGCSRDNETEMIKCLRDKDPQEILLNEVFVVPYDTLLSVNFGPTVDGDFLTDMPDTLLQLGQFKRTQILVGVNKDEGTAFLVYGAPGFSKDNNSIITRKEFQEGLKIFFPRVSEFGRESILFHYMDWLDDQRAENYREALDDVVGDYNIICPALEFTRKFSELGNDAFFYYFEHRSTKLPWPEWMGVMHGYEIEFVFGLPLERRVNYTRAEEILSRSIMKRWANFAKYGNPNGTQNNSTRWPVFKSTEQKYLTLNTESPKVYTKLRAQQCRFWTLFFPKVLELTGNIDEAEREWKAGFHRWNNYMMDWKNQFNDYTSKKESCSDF

SMILES: Cc1ccc(-c2nc(NCC3CCN(Cc4cc(F)cc(F)c4)CC3)sc2-c2ccc(C)cc2)cc1
- Activity [1]: Non-Toxic
- Activity [2]: Non-Toxic
- Activity (Mus musculus [3]): Active
- AUC(0-t) at 6 h [4]: 587 ng·h/mL
- Cmax [5]: 21.2 ng/mL
- viability at 24 h, 40 µM (in vitro [6]): 95.2%
- Activity [7]: Non-Toxic
- viability at 24 h, 80 µM (in vitro [8]): 91.3%
- Activity [9]: Non-Toxic
- Papp at 2 h, 100 ug/ml [10]: 14.5 ×10⁻⁶ cm/s
- Tmax [11]: 3.66 h
- IC50 (Cholinesterase): 1.84 µM
- Activity [12]: Non-Toxic
- Activity [13]: Non-Toxic
- inhibition (Acetylcholinesterase [14]): 27.6%
- Activity (Rattus norvegicus): Active
- Activity (Mus musculus [15]): Active
- half-life [16]: 19.4 h
- inhibition (Acetylcholinesterase [17]): Active
- Activity [18]: Non-Toxic
